Experimental data reported in the NIST ThermoML archive (doi:10.1016/j.jct.2014.05.019).
Numbers after ± are expanded uncertainties.

Test: refractive index (Na D-line) (dimensionless); xn = mol fraction of the nth substance listed
Conditions: 100 kPa, Liquid, Standard Abbe refractometry

NC(CO)C(=O)[O-].[Na+] (stereo not drawn) [sodium DL-serine] + O
refractive index
Conditions | 303.15 K | 308.15 K | 313.15 K | 318.15 K | 323.15 K | 328.15 K | 333.15 K | 338.15 K | 343.15 K
x1 = 0.009 | 1.34216 ± 0.00031 | 1.34144 ± 0.00031 | 1.34066 ± 0.00031 | 1.33982 ± 0.00031 | 1.33894 ± 0.00031 | 1.33802 ± 0.00031 | 1.33706 ± 0.00031 | 1.33608 ± 0.00031 | 1.33505 ± 0.00031
x1 = 0.018 | 1.35202 ± 0.00031 | 1.35122 ± 0.00031 | 1.35038 ± 0.00031 | 1.3495 ± 0.00031 | 1.34861 ± 0.00031 | 1.34767 ± 0.00031 | 1.34667 ± 0.00031 | 1.34565 ± 0.00031 | 1.34458 ± 0.00031
x1 = 0.028 | 1.36168 ± 0.00031 | 1.36085 ± 0.00031 | 1.36 ± 0.00031 | 1.35908 ± 0.00031 | 1.35806 ± 0.00031 | 1.35706 ± 0.00031 | 1.35612 ± 0.00031 | 1.35511 ± 0.00031 | 1.35407 ± 0.00031
x1 = 0.037 | 1.37103 ± 0.00031 | 1.37015 ± 0.00031 | 1.36925 ± 0.00031 | 1.3683 ± 0.00031 | 1.36729 ± 0.00031 | 1.36632 ± 0.00031 | 1.36532 ± 0.00031 | 1.36426 ± 0.00031 | 1.36322 ± 0.00031
x1 = 0.048 | 1.38012 ± 0.00031 | 1.37921 ± 0.00031 | 1.37827 ± 0.00031 | 1.37725 ± 0.00031 | 1.37623 ± 0.00031 | 1.37526 ± 0.00031 | 1.37424 ± 0.00031 | 1.37311 ± 0.00031 | 1.37204 ± 0.00031
x1 = 0.059 | 1.38919 ± 0.00032 | 1.38826 ± 0.00032 | 1.38724 ± 0.00032 | 1.3862 ± 0.00032 | 1.38512 ± 0.00032 | 1.38406 ± 0.00032 | 1.38298 ± 0.00032 | 1.38194 ± 0.00032 | 1.38083 ± 0.00032
